pIC50: −log10 of the molar value. Where “and” joins values, the source holds several entries; their conditions need not be identical. Equal entries are not always repeated.
Columns and labels:
EGFR kinase = EGFR kinase (Homo sapiens, UniProt P00533); assay: 46 kinase panel; assay type: biochemical
Excerpt: (§1) Both patents are incorporated by reference herein in their entirety.

FGFR1 = FGFR1 (Homo sapiens, UniProt P11362); assay: 46 kinase panel; assay type: biochemical
Excerpt: as §1

FGFR2 = FGFR2 (Homo sapiens, UniProt P21802); assay: 46 kinase panel; assay type: biochemical
Chain of FGFR2 (P21802 22-821, species assumed): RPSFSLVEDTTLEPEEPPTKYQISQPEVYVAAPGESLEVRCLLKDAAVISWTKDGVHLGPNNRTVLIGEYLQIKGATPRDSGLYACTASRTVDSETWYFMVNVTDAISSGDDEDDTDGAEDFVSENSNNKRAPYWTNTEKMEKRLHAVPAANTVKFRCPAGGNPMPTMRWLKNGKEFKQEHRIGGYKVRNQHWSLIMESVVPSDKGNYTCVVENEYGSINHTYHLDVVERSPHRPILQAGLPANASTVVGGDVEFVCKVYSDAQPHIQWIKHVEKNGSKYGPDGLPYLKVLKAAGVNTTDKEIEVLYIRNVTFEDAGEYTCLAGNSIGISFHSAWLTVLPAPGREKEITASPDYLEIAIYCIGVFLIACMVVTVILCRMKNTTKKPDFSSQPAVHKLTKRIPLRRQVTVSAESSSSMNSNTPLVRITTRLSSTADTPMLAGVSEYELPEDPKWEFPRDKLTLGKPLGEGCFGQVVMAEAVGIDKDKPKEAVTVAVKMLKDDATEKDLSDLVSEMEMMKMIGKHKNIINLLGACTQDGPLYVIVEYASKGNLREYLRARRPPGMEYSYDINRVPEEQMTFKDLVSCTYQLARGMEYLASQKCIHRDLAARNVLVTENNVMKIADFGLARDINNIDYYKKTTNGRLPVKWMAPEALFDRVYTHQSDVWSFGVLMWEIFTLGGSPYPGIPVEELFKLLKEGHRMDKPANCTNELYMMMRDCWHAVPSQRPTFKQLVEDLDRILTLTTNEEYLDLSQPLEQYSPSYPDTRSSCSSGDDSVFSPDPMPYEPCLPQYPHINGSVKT
Excerpt: as §1

JAK3 = biological target: T1, JAK3 (Homo sapiens, UniProt P52333); assay: 46 kinase panel; assay type: biochemical
T1 sequence (P52333 1-1124): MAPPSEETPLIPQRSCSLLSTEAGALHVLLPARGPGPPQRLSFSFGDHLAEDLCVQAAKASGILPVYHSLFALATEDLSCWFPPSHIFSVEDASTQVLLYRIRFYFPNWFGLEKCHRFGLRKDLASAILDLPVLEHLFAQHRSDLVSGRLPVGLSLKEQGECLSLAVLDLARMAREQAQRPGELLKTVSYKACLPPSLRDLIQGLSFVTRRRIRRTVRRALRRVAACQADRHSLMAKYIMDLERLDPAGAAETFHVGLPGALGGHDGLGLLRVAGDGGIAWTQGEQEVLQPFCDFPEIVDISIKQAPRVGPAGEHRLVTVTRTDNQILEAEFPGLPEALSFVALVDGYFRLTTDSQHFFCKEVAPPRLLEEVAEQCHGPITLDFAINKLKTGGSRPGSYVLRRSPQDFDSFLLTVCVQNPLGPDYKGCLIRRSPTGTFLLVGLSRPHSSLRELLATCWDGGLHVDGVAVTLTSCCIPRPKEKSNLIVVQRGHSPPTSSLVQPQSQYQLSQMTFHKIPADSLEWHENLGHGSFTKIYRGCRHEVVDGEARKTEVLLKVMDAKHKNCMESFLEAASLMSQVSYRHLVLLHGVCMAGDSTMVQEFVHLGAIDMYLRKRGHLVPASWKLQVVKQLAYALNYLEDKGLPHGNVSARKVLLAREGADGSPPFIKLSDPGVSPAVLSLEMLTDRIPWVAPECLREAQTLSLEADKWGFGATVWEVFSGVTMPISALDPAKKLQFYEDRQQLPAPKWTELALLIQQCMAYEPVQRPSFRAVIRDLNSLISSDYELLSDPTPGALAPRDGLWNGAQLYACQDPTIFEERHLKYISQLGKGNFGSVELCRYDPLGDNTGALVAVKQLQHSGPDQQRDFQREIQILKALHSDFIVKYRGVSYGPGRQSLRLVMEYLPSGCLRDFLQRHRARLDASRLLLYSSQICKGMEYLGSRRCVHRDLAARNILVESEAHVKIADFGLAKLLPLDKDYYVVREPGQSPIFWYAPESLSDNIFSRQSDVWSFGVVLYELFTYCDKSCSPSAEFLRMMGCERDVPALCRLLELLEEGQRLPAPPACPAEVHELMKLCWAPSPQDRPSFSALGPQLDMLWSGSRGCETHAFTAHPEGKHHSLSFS
Excerpt: as §1

toxicokinetics in rats = assay type: in vivo
Excerpt: as §1

[1] = China Phase I trial of Compound A monotherapy: pharmacokinetics; assay type: in vivo, human
Procedure: (§2) The pharmacokinetics of Compound A was also evaluated.
(§3) Patients who met the following inclusion criteria were enrolled in the trials in China: i) age≥18 years, no gender limits, and provide the informed consent form; ii) B-cell lymphoma classification is based on WHO classified definition, including CLL, small lymphocytic lymphoma (SLL); CLL with 17p-; MCL; WM; DLBCL, etc.; iii) measurable lesion: NHL requires at least one≥2 cm two-dimensional lesion diameter, CLL≥5000 leukemia cells/mm^3, WM IgM≥1000 mg/dL, bone marrow lymph plasma-like cells infiltration, histopathologically diagnosed as DLBCL; iv) patients failed in lymphoma treatment at least once and have no standard therapeutic options; DLBCL patients who are not suitable for or reject autologous stem cell transplantation; and v) ECOG (Eastern Cooperative Oncology Group) performance status 0˜1. Meanwhile, patients who met any one of the following criteria were excluded: i) disease with changes of pathological tissue types (including large cell transformation); ii) patients received other BTK inhibitor therapy (China only); and iii) patients with HIV infection, or HBs-Ag or HBc-Ab positive.
(§4) No intrapatient dose escalation of Compound A was permitted.

[2] = China Phase I trial of Compound A monotherapy: safety; assay type: in vivo, human
Procedure: as §2, §3, §4

[3] = test system: relapsed/refractory B-cell lymphomas; assay: China Phase I trial of Compound A monotherapy: efficacy; assay type: in vivo, human
Procedure: as §2, §3, §4

[4] = test system: relapsed/refractory CLL, Hodgkin lymphoma and B-cell NHL including DLBCL; assay: U.S. Phase Ia trial of Compound A monotherapy: efficacy; assay type: in vivo, human; set-up: key to response: PD: disease progression; conditions: for time on continued monotherapy treatment: treatment continuing
Procedure: Eligibility criteria for the U.S. study were similar to the China study, but histological subtypes included patients with relapsed/refractory CLL, Hodgkin lymphoma and B-cell NHL including DLBCL. Patients who had prior exposure to BTK inhibiting agents were permitted in the trial.
(§5) Studies on the 200 mg and 300 mg cohorts were conducted in a standard 3+3 design.
The response rate, including the partial response and complete response rate, was defined according to the Revised International Working Group Criteria for non-Hodgkin's lymphoma (Cheson et al., J Clin Oncol 25:579-86 (2007)). Drug-related adverse events (AEs), including DLT, non-hematologic AEs and hematologic AEs were recorded. […] The PK indexes of single dose administration included AUClast, AUCO-∞, Cmax, tmax, t1/2, CL/F and Vd/F. The PK indexes of steady state under continuous administration included AUCss, Cmax,ss and tmax,ss.

[5] = U.S. Phase Ia trial of Compound A monotherapy: safety
Procedure: as §5
Drug-related adverse events (AEs), including DLT, non-hematologic AEs and hematologic AEs were recorded. […] The PK indexes of single dose administration included AUClast, AUCO-∞, Cmax, tmax, t1/2, CL/F and Vd/F. The PK indexes of steady state under continuous administration included AUCss, Cmax,ss and tmax,ss.

[6] = 13 patients, 50-400 mg daily, 28 day dosing schedule
[7] = five patients, 21 day dosing schedule

Chain of EGFR kinase (P00533 25-1210): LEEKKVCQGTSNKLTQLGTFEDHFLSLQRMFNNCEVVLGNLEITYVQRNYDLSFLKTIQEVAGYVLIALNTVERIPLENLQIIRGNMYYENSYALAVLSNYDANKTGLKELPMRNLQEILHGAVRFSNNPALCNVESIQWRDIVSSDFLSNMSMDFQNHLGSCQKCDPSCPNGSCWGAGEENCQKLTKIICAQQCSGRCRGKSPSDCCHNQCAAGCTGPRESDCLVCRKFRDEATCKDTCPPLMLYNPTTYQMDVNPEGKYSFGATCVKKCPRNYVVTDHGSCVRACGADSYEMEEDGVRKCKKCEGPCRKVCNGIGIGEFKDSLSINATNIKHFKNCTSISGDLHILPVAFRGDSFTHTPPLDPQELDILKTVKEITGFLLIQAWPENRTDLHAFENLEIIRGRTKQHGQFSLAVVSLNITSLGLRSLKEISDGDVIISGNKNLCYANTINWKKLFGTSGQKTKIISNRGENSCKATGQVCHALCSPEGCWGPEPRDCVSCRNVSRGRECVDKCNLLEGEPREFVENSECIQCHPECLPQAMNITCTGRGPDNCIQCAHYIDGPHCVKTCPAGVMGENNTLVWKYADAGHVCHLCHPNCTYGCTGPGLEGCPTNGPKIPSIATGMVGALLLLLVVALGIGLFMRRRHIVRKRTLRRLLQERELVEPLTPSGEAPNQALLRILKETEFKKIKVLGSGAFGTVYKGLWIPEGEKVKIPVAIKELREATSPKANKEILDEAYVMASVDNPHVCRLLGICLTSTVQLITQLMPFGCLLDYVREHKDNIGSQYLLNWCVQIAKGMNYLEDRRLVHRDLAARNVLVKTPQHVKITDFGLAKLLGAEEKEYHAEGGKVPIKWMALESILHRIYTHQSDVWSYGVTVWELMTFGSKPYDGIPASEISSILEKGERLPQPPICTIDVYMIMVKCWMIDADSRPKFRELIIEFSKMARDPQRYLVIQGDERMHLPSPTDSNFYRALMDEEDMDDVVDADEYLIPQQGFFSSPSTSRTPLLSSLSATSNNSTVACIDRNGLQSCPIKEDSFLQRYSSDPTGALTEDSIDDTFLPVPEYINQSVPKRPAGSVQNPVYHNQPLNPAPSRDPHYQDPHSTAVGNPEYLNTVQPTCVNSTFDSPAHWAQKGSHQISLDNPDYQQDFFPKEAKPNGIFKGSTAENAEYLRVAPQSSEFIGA
Chain of FGFR1 (P11362 22-822, species assumed): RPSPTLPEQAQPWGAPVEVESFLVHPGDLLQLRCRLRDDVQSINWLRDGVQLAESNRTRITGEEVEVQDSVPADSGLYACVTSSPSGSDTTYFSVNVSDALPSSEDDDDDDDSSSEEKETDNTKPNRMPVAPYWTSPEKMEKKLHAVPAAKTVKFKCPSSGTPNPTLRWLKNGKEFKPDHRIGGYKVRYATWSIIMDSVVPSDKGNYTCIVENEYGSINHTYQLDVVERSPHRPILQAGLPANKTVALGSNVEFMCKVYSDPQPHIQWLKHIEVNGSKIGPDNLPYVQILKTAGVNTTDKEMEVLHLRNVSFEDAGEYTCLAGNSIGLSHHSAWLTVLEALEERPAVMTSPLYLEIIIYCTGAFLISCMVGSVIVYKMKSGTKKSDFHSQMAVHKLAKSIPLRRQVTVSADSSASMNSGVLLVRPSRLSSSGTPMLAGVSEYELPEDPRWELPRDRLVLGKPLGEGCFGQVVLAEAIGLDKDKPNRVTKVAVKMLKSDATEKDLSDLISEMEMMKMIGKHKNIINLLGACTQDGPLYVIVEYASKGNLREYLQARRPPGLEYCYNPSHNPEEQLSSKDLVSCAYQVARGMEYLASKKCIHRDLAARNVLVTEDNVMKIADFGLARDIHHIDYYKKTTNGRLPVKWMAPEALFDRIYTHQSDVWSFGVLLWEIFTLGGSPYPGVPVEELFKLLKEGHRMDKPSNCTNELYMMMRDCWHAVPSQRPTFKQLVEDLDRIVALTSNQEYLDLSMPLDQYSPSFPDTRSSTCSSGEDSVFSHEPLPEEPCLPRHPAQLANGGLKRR

C=CC(=O)N1CC[C@@H](n2nc(-c3ccc(Oc4c(F)c(F)cc(F)c4F)cc3F)c3c(N)ncnc32)C1 [Compound A, 1-((R)-3-(4-amino-3-(2-fluoro-4-(2,3,5,6-tetrafluorophenoxy)phenyl)-1H-pyrazolo[3,4-d]pyrimidin-1-yl)pyrrolidin-1-yl)prop-2-en-1-one]
inhibition of EGFR (EGFR kinase; 46 kinase panel): partial inhibition
pIC50 (EGFR kinase; read-out: IC50 against EGFR kinase): 6.96
inhibition of FGFR1 (FGFR1): partial inhibition
inhibition of FGFR2 (FGFR2): partial inhibition
inhibition of JAK3 (JAK3): partial inhibition
toxicokinetics properties (toxicokinetics in rats): Improved toxicokinetics properties
Compound A Plasma Levels ([1]; Day 1, 100 mg, 2 h): 107 ng/mL and 150 ng/mL
Compound A Plasma Levels ([1]; Day 1, 100 mg, 6 h): 22.8 ng/mL and 29.4 ng/mL
Compound A Plasma Levels ([1]; Day 1, 400 mg, 4 h): 243 ng/mL and 184 ng/mL
Compound A Plasma Levels ([1]; Day 1, 400 mg, 6 h): 107 ng/mL and 130 ng/mL
Compound A Plasma Levels ([1]; Day 8, 100 mg, 2 h): 135 ng/mL and 83.0 ng/mL
Compound A Plasma Levels ([1]; Day 8, 100 mg, 24 h): 1.73 ng/mL and 1.27 ng/mL
Compound A Plasma Levels ([1]; Day 8, 200 mg, 0 h): 5.13 ng/mL and 3.53 ng/mL
Compound A Plasma Levels ([1]; Day 8, 200 mg, 1 h): 239 ng/mL
Compound A Plasma Levels ([1]; Day 8, 200 mg, 2 h): 273 ng/mL and 295 ng/mL
Compound A Plasma Levels ([1]; Day 8, 400 mg, 4 h): 214 ng/mL and 217 ng/mL
concentration at 0 h ([1]; human, plasma, oral, 50 mg, Compound A Plasma Levels, Day 1, 50 mg, 0 h): 0 µg/mL
concentration at 24 h ([1]; human, plasma, oral, 50 mg, Compound A Plasma Levels, Day 1, 50 mg, 24 h): 0 µg/mL
concentration at 24 h ([1]; human, plasma, oral, 50 mg, Compound A Plasma Levels, Day 8, 50 mg, 24 h): 0 µg/mL
concentration at 0 h ([1]; human, plasma, oral, 100 mg, Compound A Plasma Levels, Day 1, 100 mg, 0 h): 0 µg/mL
concentration at 2 h ([1]; human, plasma, oral, 100 mg, Compound A Plasma Levels, Day 1, 100 mg, 2 h): 0.192 µg/mL
concentration at 6 h ([1]; human, plasma, oral, 100 mg, Compound A Plasma Levels, Day 1, 100 mg, 6 h): 0.0291 µg/mL
concentration at 2 h ([1]; human, plasma, oral, 100 mg, Compound A Plasma Levels, Day 8, 100 mg, 2 h): 0.166 µg/mL
concentration at 24 h ([1]; human, plasma, oral, 100 mg, Compound A Plasma Levels, Day 8, 100 mg, 24 h): 0.00134 µg/mL
concentration at 0 h ([1]; human, plasma, oral, 200 mg, Compound A Plasma Levels, Day 1, 200 mg, 0 h): 0 µg/mL
concentration at 0 h ([1]; human, plasma, oral, 200 mg, Compound A Plasma Levels, Day 8, 200 mg, 0 h): 0.00369 µg/mL
concentration at 1 h ([1]; human, plasma, oral, 200 mg, Compound A Plasma Levels, Day 8, 200 mg, 1 h): 0.369 µg/mL
concentration at 2 h ([1]; human, plasma, oral, 200 mg, Compound A Plasma Levels, Day 8, 200 mg, 2 h): 0.537 µg/mL
concentration at 0 h ([1]; human, plasma, oral, 400 mg, Compound A Plasma Levels, Day 1, 400 mg, 0 h): 0 µg/mL
concentration at 4 h ([1]; human, plasma, oral, 400 mg, Compound A Plasma Levels, Day 1, 400 mg, 4 h): 0.134 µg/mL
concentration at 6 h ([1]; human, plasma, oral, 400 mg, Compound A Plasma Levels, Day 1, 400 mg, 6 h): 0.0859 µg/mL
concentration at 4 h ([1]; human, plasma, oral, 400 mg, Compound A Plasma Levels, Day 8, 400 mg, 4 h): 0.159 µg/mL
Grade 2, 4 or 5 hematologic events [2]: No Grade 2, 4 or 5 hematologic events occurred
Grade 2, 4 or 5 non-hematologic events [2]: No Grade 2, 4 or 5 non-hematologic events occurred
anemia, patients [2, 6]: 23.1%
leucopenia, patients [2, 6]: 23.1%
neutropenia, patients [2, 6]: 23.1%
dose-limiting toxicity ([2]; 50-400 mg daily): No dose-limiting toxicity occurred
grade of the majority of drug-related AEs ([2]; 28 day dosing schedule): grade 1
Grade 1 alanine aminotransferase (ALT) elevation, patients ([2]; one patient): 7.7%
Grade 1 neutropenia, patients ([2]; one patient): 7.7%
Grade 3 pneumonia, patients ([2]; one patient): 7.7%
Grade 3 neutropenia, patients ([2]; two patients): 15.4%
response ([3]; FL patients (N=2)): 1PR, 1SD
progressive disease after treatment ([3]; FL patients, first cycle): three FL patients experienced progressive disease
response ([3]; MZL patients (N=2)): 1CR, 1SD
response ([3]; WM patients (N=2)): 2PR
response ([4]; B-cell lymphoma patient): 1SD
time on monotherapy until off study for disease progression ([4]; B-cell lymphoma, 50 mg): five months
response ([4]; CLL patients (N=2)): 1PR, 1SD
time on continued monotherapy treatment ([4]; CLL, 100 mg): 13 months
time on monotherapy until off study for disease progression ([4]; CLL, 200 mg): 8 months
response ([4]; DLBCL patient): PD
time on monotherapy until off study for disease progression ([4]; DLBCL, 200 mg): 2 months
response ([4]; MZL patient): 1PR
time on continued monotherapy treatment ([4]; MZL): 11 months
discontinuation due to AEs and deaths ([5]; five patients): No patient discontinued study treatment due to AEs and no patient died on-study or within the 30-day follow-up period
hematologic single patient events ([5]; five patients): Grade 3 thrombocytopenia and Grade 3 neutropenia
non-hematologic single patient events ([5]; five patients): Grade 3 lung infection, bronchitis, myalgia, nausea, fatigue and purpura (all Grade 1)
anemia, patients ([5]; five patients, 50-200 mg daily, 21 day dosing schedule): 60%
arthralgia, patients [5, 7]: 40%
contusion, patients [5, 7]: 40%
grade of adverse events [5, 7]: mostly Grade 1 and 2
upper respiratory infection, patients [5, 7]: 40%
tolerability ([5]; three additional patients, 300 mg): well tolerated

From US11622965B2, “Methods for treating lymphoid malignancies” (ZHEJIANG DTRM BIOPHARMA CO. LTD., priority 2017, dated 2023)
